ChEMBL document CHEMBL4840336, “Discovery, Optimization, and Structure-Activity Relationship Study of Novel and Potent RSK4 Inhibitors as Promising Agents for the Treatment of Esophageal Squamous Cell Carcinoma” (J Med Chem, 2021)
Calls of active or inactive are those of the source. No cut-off for these calls is given here.

Experiments:
[1] = biological target: T1, Ribosomal protein S6 kinase alpha-1 (Homo sapiens, UniProt Q15418); test: Inhibition of full length recombinant His-tagged human RSK1 expressed in baculovirus expression system using biotin-labelled AGAGRSRHSSYPAGT-OH as substrate in presence of ATP
[2] = biological target: T2, Ribosomal protein S6 kinase alpha-2 (Homo sapiens, UniProt Q15349); test: Inhibition of full length recombinant GST-tagged human RSK3 expressed in insect cell using biotin-labelled AGAGRSRHSSYPAGT-OH as substrate in presence of ATP
[3] = biological target: T3, Ribosomal protein S6 kinase alpha-3 (Homo sapiens, UniProt P51812); test: Inhibition of full length recombinant His-tagged human RSK2 expressed in baculovirus expression system using biotin-labelled AGAGRSRHSSYPAGT-OH as substrate in presence of ATP
[4] = Toxicity in nude mouse xenografted with human TE-10 cells assessed as morphological changes in lung at 25 to 50 mg/kg, ip administered for 20 consecutive days by hematoxylin-eosin staining based analysis; assay type: organism-based; conditions: in vivo, 480 h, dose 25-50 mg/kg, time 20 day
[5] = test system: Mus musculus; test: In vivo inhibition of RSK4 in nude mouse xenografted with human TE-10 cells assessed as suppression of RPS6 phosphorylation at 25 to 50 mg/kg, ip administered for 20 consecutive days; assay type: functional, organism-based; conditions: dose lower […], dose upper 50.0 mg/kg, time 20.0 day
[6] = biological target: T3, Ribosomal protein S6 kinase alpha-3; test: Inhibition of RSK2 in human TE-10 cells assessed as suppression of HSP27 at residue 33 phosphorylation at 1 to 10 uM measured after 24 hrs by Western blot analysis; assay type: cell-based; conditions: dose 1-10 µM
[7] = Volume of distribution at steady state in iv dosed Sprague-Dawley rat; assay type: ADME, organism-based; conditions: in vivo, read-out: Vdss
[8] = biological target: T3, Ribosomal protein S6 kinase alpha-3; test: Inhibition of RSK2 in human TE-10 cells assessed as suppression of creb-phosphorylation at 1 to 10 uM measured after 24 hrs by Western blot analysis; assay type: cell-based; conditions: dose 1-10 µM
[9] = biological target: T2, Ribosomal protein S6 kinase alpha-2; test: Inhibition of RSK3 in human TE-10 cells assessed as suppression of HistoneH3 phosphorylation at residue 34 at 1 to 10 uM measured after 24 hrs by Western blot analysis; assay type: cell-based; conditions: dose 1-10 µM
[10] = test system: TE-10; test: Antitumor activity against human TE-10 cells xenografed in nude mouse assessed as tumor growth inhibition at 50 mg/kg, ip administered for 20 consecutive days by caliper method relative to control; assay type: functional; conditions: TE-10, ip, 480 h, time 20 day, read-out: TGI
[11] = biological target: T2, Ribosomal protein S6 kinase alpha-2; test: Inhibition of RSK3 in human TE-10 cells assessed as suppression of HistoneH3 phosphorylation at residue 35 at 1 to 10 uM measured after 24 hrs by Western blot analysis; assay type: cell-based; conditions: dose 1-10 µM
[12] = Half life in iv dosed Sprague-Dawley rat; assay type: ADME, organism-based; conditions: in vivo
[13] = Toxicity in nude mouse xenografted with human TE-10 cells assessed as morphological changes in kidney at 25 to 50 mg/kg, ip administered for 20 consecutive days by hematoxylin-eosin staining based analysis; assay type: organism-based; conditions: in vivo, 480 h, dose 25-50 mg/kg, time 20 day
[14] = Toxicity in nude mouse xenografted with human TE-10 cells assessed as effect on organ damage at 25 to 50 mg/kg, ip administered for 20 consecutive days; assay type: organism-based; conditions: in vivo, 480 h, dose 25-50 mg/kg, time 20 day
[15] = Toxicity in nude mouse xenografted with human TE-10 cells assessed as morphological changes in heart at 25 to 50 mg/kg, ip administered for 20 consecutive days by hematoxylin-eosin staining based analysis; assay type: organism-based; conditions: in vivo, 480 h, dose 25-50 mg/kg, time 20 day
[16] = biological target: T2, Ribosomal protein S6 kinase alpha-2; test: Inhibition of RSK3 (unknown origin) at 100 nM relative to control
[17] = test system: Mus musculus; test: In vivo inhibition of RSK4 in nude mouse xenografted with human TE-10 cells assessed as suppression of GSK3beta phosphorylation at 25 to 50 mg/kg, ip administered for 20 consecutive days; assay type: functional, organism-based; conditions: dose lower […], dose upper 50.0 mg/kg, time 20.0 day
[18] = test system: TE-10; test: Inhibition of cell invasion in human TE-10 cells measured after 24 hrs by Giemsa staining based transwell invasion assay; assay type: functional; conditions: TE-10, 24 h
[19] = biological target: T1, Ribosomal protein S6 kinase alpha-1; test: Inhibition of RSK1 in human TE-10 cells assessed as suppression of EIF4B phosphorylation at 1 to 10 uM measured after 24 hrs by Western blot analysis; assay type: cell-based; conditions: dose 1-10 µM
[20] = biological target: T2, Ribosomal protein S6 kinase alpha-2; test: Inhibition of RSK3 in human TE-10 cells assessed as suppression of c-fos phosphorylation at 1 to 10 uM measured after 24 hrs by Western blot analysis; assay type: cell-based; conditions: dose 1-10 µM
[21] = biological target: T3, Ribosomal protein S6 kinase alpha-3; test: Inhibition of RSK2 in human TE-10 cells assessed as suppression of HSP27 at residue 32 phosphorylation at 1 to 10 uM measured after 24 hrs by Western blot analysis; assay type: cell-based; conditions: dose 1-10 µM
[22] = test system: TE-10; test: Antiproliferative activity against human TE-10 cells assessed as inhibition of cell proliferation measured up to 48 hrs by CCK-8 assay; assay type: functional, cell-based
[23] = biological target: T3, Ribosomal protein S6 kinase alpha-3; test: Inhibition of RSK2 (unknown origin) at 100 nM relative to control
[24] = biological target: T1, Ribosomal protein S6 kinase alpha-1; test: Inhibition of RSK1 (unknown origin) at 100 nM relative to control
[25] = test system: TE-10; test: Antitumor activity against human TE-10 cells xenografed in nude mouse assessed as tumor growth inhibition at 25 mg/kg, ip administered for 20 consecutive days by caliper method relative to control; assay type: functional; conditions: TE-10, ip, 480 h, time 20 day, read-out: TGI
[26] = Toxicity in nude mouse xenografted with human TE-10 cells assessed as effect on body weight loss at 25 to 50 mg/kg, ip administered for 20 consecutive days; assay type: organism-based; conditions: in vivo, 480 h, dose 25-50 mg/kg, time 20 day
[27] = Clearance in iv dosed Sprague-Dawley rat; assay type: ADME, organism-based; conditions: in vivo
[28] = biological target: T1, Ribosomal protein S6 kinase alpha-1; test: Inhibition of RSK1 in human TE-10 cells assessed as suppression of P27KIP1 phosphorylation at 1 to 10 uM measured after 24 hrs by Western blot analysis; assay type: cell-based; conditions: dose 1-10 µM
[29] = Toxicity in nude mouse xenografted with human TE-10 cells assessed as morphological changes in liver at 25 to 50 mg/kg, ip administered for 20 consecutive days by hematoxylin-eosin staining based analysis; assay type: organism-based; conditions: in vivo, 480 h, dose 25-50 mg/kg, time 20 day

T1 sequence (Q15418 whole entry): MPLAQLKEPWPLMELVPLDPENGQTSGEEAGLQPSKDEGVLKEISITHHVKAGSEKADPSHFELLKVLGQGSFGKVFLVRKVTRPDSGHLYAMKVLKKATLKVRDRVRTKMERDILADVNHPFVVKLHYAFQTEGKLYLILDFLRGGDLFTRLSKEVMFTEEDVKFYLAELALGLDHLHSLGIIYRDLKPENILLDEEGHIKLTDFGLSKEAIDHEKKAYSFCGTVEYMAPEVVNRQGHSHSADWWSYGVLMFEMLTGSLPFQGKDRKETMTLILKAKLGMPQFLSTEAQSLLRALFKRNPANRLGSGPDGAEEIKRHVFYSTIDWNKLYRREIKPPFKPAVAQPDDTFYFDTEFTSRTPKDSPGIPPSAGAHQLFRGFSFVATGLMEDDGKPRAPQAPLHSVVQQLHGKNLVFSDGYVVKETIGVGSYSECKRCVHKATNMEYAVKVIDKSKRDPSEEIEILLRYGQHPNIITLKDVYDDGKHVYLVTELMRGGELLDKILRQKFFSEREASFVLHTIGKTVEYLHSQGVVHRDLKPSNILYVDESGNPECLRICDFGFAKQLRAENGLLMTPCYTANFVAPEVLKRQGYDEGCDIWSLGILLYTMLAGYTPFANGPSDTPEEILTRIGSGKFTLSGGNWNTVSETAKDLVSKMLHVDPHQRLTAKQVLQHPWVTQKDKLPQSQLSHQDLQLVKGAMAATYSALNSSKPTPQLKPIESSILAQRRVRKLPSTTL
T2 sequence (Q15349 whole entry): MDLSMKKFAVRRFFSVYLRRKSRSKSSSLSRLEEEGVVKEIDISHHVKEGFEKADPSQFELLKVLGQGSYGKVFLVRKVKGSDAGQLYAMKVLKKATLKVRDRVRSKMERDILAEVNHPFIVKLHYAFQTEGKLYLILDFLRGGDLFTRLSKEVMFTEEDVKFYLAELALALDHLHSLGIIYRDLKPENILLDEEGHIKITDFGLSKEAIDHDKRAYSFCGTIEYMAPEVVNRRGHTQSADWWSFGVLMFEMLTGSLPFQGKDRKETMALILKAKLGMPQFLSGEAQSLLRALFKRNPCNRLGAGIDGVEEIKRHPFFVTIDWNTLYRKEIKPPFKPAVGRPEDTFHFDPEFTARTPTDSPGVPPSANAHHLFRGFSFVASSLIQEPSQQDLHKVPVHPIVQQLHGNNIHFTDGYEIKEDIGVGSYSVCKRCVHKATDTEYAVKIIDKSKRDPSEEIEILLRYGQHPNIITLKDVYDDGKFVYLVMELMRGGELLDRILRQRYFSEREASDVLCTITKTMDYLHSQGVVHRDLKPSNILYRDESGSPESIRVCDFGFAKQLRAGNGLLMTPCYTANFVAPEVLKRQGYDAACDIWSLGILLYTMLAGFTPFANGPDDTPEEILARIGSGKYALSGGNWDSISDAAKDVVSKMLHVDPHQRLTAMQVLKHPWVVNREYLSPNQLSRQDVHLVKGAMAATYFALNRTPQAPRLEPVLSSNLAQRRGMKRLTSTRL
T3 sequence (P51812 whole entry): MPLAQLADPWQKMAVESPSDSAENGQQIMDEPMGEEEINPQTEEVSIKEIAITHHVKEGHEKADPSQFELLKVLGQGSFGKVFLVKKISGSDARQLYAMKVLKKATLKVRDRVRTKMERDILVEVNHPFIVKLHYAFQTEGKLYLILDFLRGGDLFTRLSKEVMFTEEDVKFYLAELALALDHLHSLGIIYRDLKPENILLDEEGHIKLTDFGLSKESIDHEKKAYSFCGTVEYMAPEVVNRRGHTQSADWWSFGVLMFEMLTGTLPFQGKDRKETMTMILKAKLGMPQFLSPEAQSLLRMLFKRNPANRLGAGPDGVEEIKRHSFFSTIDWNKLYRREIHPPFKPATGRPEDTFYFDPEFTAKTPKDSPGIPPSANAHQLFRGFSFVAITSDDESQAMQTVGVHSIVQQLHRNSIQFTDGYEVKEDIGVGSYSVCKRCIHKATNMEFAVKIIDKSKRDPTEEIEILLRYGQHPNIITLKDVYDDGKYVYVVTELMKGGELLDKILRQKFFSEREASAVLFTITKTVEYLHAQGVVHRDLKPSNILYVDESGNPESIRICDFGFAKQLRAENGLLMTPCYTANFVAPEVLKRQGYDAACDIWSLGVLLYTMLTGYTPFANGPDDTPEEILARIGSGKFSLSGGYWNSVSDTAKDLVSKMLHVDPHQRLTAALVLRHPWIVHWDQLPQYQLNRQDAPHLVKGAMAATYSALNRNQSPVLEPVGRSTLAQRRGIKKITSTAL

Compound `CN1CCN(c2ccc(-c3ccncc3-c3cc(F)c(O)c(F)c3)cc2)CC1` has an IC50 [1] of 6 nM, an IC50 [2] of 4 nM and an IC50 [3] of 4 nM.
In the case of `CC(C)C1OC(=O)N(C2CCCC2)c2nc(Nc3cc(F)c(O)c(F)c3)ncc21` (centres undefined), the Activity [4] is reported as “Non-Toxic”, the inhibition [5] is reported as “inactive” and the inhibition [6] is reported as “inactive”. The Vd [7] was 1.28 L/kg, the inhibition [8] was “inactive” and the inhibition [9] was “inactive”. For the same compound, the inhibition in vivo at 50 mg/kg [10] was 48.7%, the inhibition [11] was “inactive” and the half-life [12] was 55.2 min. The Activity [13] was “Non-Toxic”, the Activity [14] was “Non-Toxic” and the Activity [15] was “Non-Toxic”. The inhibition [16] was greater than 90%, the inhibition [17] was “inactive” and the IC50 [18] was 983 nM. For the same compound, the inhibition [19] was “inactive”, the inhibition [20] was “inactive” and the inhibition [21] was “inactive”. The IC50 ([22]; TE-10, 48 h) was 570 nM, the inhibition ([22]; time hrs <=48) was “Dose-Dependent Effect” and the inhibition [23] was greater than 90%. For the same compound, the inhibition [24] was greater than 90%, the inhibition in vivo at 25 mg/kg [25] was 73.4% and the Activity [26] was “Non-Toxic”. For the same compound, the clearance [27] was 67.5 mL/min/kg, the inhibition [28] was “inactive” and the Activity [29] was “Non-Toxic”.
For `Oc1c(F)cc(-c2cnccc2-c2ccc(N3CCOCC3)cc2)cc1F`, the IC50 [1] was 5 nM, the IC50 [2] was 13 nM and the IC50 [3] was 6 nM.
In the case of `CC(C)CCN1c2nc(Nc3cc(F)c(O)c(F)c3)ncc2N(C)C(=O)C1C` (centres undefined), the inhibition in vivo at 50 mg/kg [10] is reported as 41.6%.
